Key:
[1] = test system: PC-3 cells; test: FACScan flow cytometric analysis of cell cycle progression; format: cell-based; conditions: 1 µM, 3 µM, and 10 µM, 0 hr to 48 hrs
Method: PC-3 cells were treated with Compound 55 (at different concentrations: 1 µM, 3 µM, and 10 µM) for 0 hr, 6 hrs, 12 hrs, 18 hrs, 24 hrs, 36 hrs, and 48 hrs. After treatment, cells were washed twice with ice-cold PBS, collected by centrifugation and fixed in 70% (v/v) ethanol at 4°C for 30 min. Then, cells were treated with 0.2 ml of a buffer (containing 0.2 M Na2HPO4 and 0.1 M citric acid buffer, pH 7.8) for 30 min, centrifuged, and then incubated in 1 mL propidium iodide (PI) staining buffer (0.1 % Triton X-100, 100 µg/mL RNase A, 80 µg/mL propidium iodide in PBS) at 37°C for 30 min. Cells were detected using a cytofluorometer, and analyzed by FACScan and CellQuest program (Becton Dickinson).

[2] = test system: Ras, Raf-1, and MEK; test: Western blotting of Ras, Raf-1, MEK; format: cell-based; conditions: PC-3 cells; 10 µM; 30-120 min for Ras, 6-24 hrs for Raf-1, MEK
Method: (§1) PC-3 cells were incubated with a vehicle (0.1% DMSO) as control or Coumpound 55 (10 µM) for 30 min, 45 min, 60 min, and 120 min for testing Ras; or for 6 hrs, 12 hrs, 18 hrs, and 24 hrs for testing Raf-1, Phospho-MEK, MEK, and GAPDH. After the treatment, cells were washed twice with ice-cold PBS and then lysed with 100 µL lysis buffer (20 mM Tris, pH 7.5, 1 mM MgCl2, 125 mM NaCl, 1% Triton X-100, 1 mM phenylmethylsulphonylfluoride, 10 µg/mL leupeptin, 10 µg/mL aprotinin, 25 mM β-glycerophosphate, 50 mM NaF, and 100 µM sodium orthovanadate). Then, the expressions of the above proteins were detected by Western blotting.

[3] = test system: Cyclin E, Cyclin A, Cyclin B1, Cdk1, Cdk2, p27, MPM2; test: Western blot analysis of cell-cycle regulators; format: cell-based; conditions: PC-3 cells; 10 µM
Method: as §1
The cell-cycle regulators were also examined by Western blot analysis. Proteins in the lysis (40 µg) were separated by electrophoresis in a 10 or 15% polyacrylamide gel, transferred to a nitrocellulose membrane and immuno-reacted with respective antibodies against Cyclin E, Cyclin A, Cyclin B1, Cdk1, Cdk2, p27, MPM2, and GAPDH.

[4] = test system: Tubulin proteins; test: In vitro tubulin turbidity assay; format: biochemical; conditions: absorbance at 340 nm, 37°C, 60 min
Method: Effects of the benzimidazole compounds on tubulin polymerization were detected using CytoDYNAMIX Screen 03 kit (Cytoskeleton, Inc., Denver, CO).
Tubulin proteins (> 99% purity) were suspended in G-PEM buffer containing 80 mM PIPES, 2 mM MgCl2, 0.5 mM […], and 1.0 mM GTP (pH 6.9) and 5% glycerol with or without a test compound. Then, the mixture was transferred to a 96-well plate and the absorbance was measured at 340 nm (37°C) for 60 min (SpectraMAX Plus, Molecular Devices Inc., Sunnyvale, CA).
Level oftubulin polymerization was determined by examining turbidity of the tubulin suspension. Absorbance of the suspension at 340 nm was plotted as a function of time. Accordingly, the velocity and magnitude of tubulin polymerization were determined.

[5] = test system: PC-3 cells; test: In situ tubulin assay (immunofluorescence microscopy); format: cell-based; conditions: 18 to 24 h
Method: The organization and formation of microtubule were detected by immunofluorescence microscopic examination in PC-3 cells.
PC-3 cells were seeded in 8-well chamber slides and incubated with a vehicle (0.1% DMSO, control), Compound 55 (10 µM), taxol (0.1 µM), or vincristine (0.1 µM) for 18 to 24 h. Then, the cells were fixed with 100 % methanol at -20°C for 5 min and incubated in 1 % bovine serum albumin (BSA) containing 0.1 % Triton X-100 at 37°C for 30 min. Cells were then washed twice with PBS for 5min and stained with primary antibody specific to β-tubulin at 37°C for 1 h. Afterwards, FITC-labeled secondary antibodies were used (staining performed at 37°C for 40 min, green fluorescence) and the protein was detected using a confocal laser microscopic system (Leica TCS SP2). The nuclei were visible by DAPI staining (1 mg/mL DAPI, blue fluorescence).

[6] = test system: Bcl-2 family member proteins, caspases; test: Western blot analysis of Bcl-2 family member proteins and caspases (apoptosis); format: cell-based; conditions: PC-3 cells; 10 µM; 0 hr to 36 hrs
Method: Effect of benzimidazole compounds on inducing apoptosis was evaluated by testing their effect on the expression/activation of Bcl-2 family member proteins, caspases, and c-Jun N-terminal kinase (JNK). Bcl-2 family of proteins is the most important regulators of mitochondria-involved apoptotic cell death. The pro-apoptotic members, Bax, Bak and Bad, are required for the disruption of mitochondria; whereas the anti-apoptotic Bcl-2, Bcl-xL and Mcl-1 can prevent apoptosis by antagonizing the pro-apoptotic members.
PC-3 cells were incubated with a vehicle (0.1% DMSO) or Compound 55 (10 µM) for 0 hr, 6 hrs, 12 hrs, 18 hrs, 24 hrs, and 36 hrs. Then, the cells were harvested and lysed for the detection of protein expression with specific antibodies by western blot analysis. For Western blotting, the proteins (40 µg) in the lysis (including Phospho-Bcl-2, Bcl-2, Phospho-Bcl-xL, Bcl-xL, Mcl-1, Bax, Bak, Bad, GAPDH, cleaved Bad, Caspase-9, cleaved Caspase-9, Caspase-3, cleaved Caspase-3, poly-(ADP-ribose) polymerase (PARP), cleaved PARP, and GAPDH) were separated by electrophoresis in a 10 to 15% polyacrylamide gel, transferred to a nitrocellulose membrane and immuno-reacted with specific antibodies.

COc1cc(Cn2c(-c3ccccc3)nc3cc(N4CCCC4)ccc32)cc(OC)c1OC [Compound 55, 2-phenyl-5-(pyrrolidin-1-yl)-1-(3,4,5-trimethoxybenzyl)-1H benzo[d]imidazole]
cell population at G2/M phase [1]: increase of cell population at G2/M phase | hypodiploid (sub-G1, apoptosis) population of the cell cycle [1]: subsequent increase of hypodiploid (sub-G1, apoptosis) population | expression of Ras, Raf-1, and MEK [2]: upregulated Ras, Raf-1, and MEK | expression of cyclin B1 [3]: upregulated cyclin B1 | expression of cyclin E and cyclin A [3]: downregulated cyclin E and cyclin A | tubulin polymerization [4]: inhibited tubulin polymerization in a dose-dependent manner | spindles and nuclei, in situ labeling of tubulin and chromosomes ([5]; 10 µM): mono-polar | Mcl-1 expression [6]: decrease of Mcl-1 expression | cleavage of caspase-9, caspase-3 and PARP [6]: cleaved to produce catalytically active fragments | phosphorylation and degradation of Bcl-2 and Bcl-xL [6]: induced the phosphorylation and degradation of Bcl-2 and Bcl-xL

CC(=O)O[C@H]1C(=O)[C@@]2(C)[C@H]([C@H](OC(=O)c3ccccc3)[C@]3(O)C[C@H](OC(=O)[C@H](O)[C@@H](NC(=O)c4ccccc4)c4ccccc4)C(C)=C1C3(C)C)[C@]1(OC(C)=O)CO[C@@H]1C[C@@H]2O [taxol]
spindles and nuclei, in situ labeling of tubulin and chromosomes ([5]; 0.1 µM): multi-polar spindles and multiple nuclei were formed

CC[C@]1(O)C[C@H]2CN(CCc3c([nH]c4ccccc34)[C@@](C(=O)OC)(c3cc4c(cc3OC)N(C=O)[C@H]3[C@@](O)(C(=O)OC)[C@H](OC(C)=O)[C@]5(CC)C=CCN6CC[C@]43[C@@H]65)C2)C1 [vincristine]
spindles and nuclei, in situ labeling of tubulin and chromosomes ([5]; 0.1 µM): multi-polar spindles and chromosome condensation were observed
